Results reported in paper PMC12657321, “Pre-clinical evaluation of a potent and effective Pin1-degrading agent in pancreatic cancer” (Molecular Therapy Oncology, 2025).
Non-standard residues stand in square brackets, D forms with d. Residues, ends and D or L forms follow the SMILES beside them. *: point of attachment. Trp(6-Cl) = N[C@@H](Cc1c[nH]c2cc(Cl)ccc12)C(=O)O; Pip = O=C(O)[C@@H]1CCCCN1; ClAc = O=C(CCl)*

How the values were obtained:
[1] = 164B8 concentration in tissues of treated mice by LC-MS; assay type: in vivo, mouse; settings: for 164B8 conc. (ng/mg) Predicted means (LS means) Adjacent Peritoneum / 164B8 conc. (ng/mg) Predicted means (LS means) Liver / 164B8 conc. (ng/mg) Predicted means (LS means) Tumor: 6 h after last dose, LC-MS, two-way ANOVA LS mean (Figure 7B)
Procedure: To further verify that the observed activity was due to direct inhibition of Pin1 in vivo, we analyzed tumor tissues to measure 164B8 levels and Pin1 degradation in both tumor and normal tissues. At day 14, 6 h after the final intraperitoneal dose, 164B8 was detected and quantified in tumor tissue via liquid chromatography-mass spectrometry (LC-MS). Significant levels of 164B8 were detected in the liver, tumor-adjacent peritoneum, and tumor tissues collected from mice treated with either 30 mg/kg or 60 mg/kg (Figure 7A). The average tumor values were 0.62 ng/mg for mice treated with 30 mg/kg 164B8 and approximately 8 ng/mg for those treated with 60 mg/kg 164B8, compared with the vehicle control (0.03 ng/mg). In mice treated with 164B8 at 60 mg/kg, we observed enrichment of 164B8 in tumor tissues compared with adjacent normal tissues (mean: 3.65 vs. 8 ng/mg, p = 0.035) and normal liver tissues (mean: 0.75 vs. 8 ng/mg, p = 0.0003). For the 30 mg/kg dose, drug levels were numerically higher in tumor tissue (0.62 ng/mg) compared with adjacent normal peritoneum (0.11 ng/mg) and liver (0.10 ng/mg), although these differences were not statistically significant after adjustment for multiple comparisons (Figures 7A and 7B). Likewise, Pin1 levels in tumor tissues were detected via western blotting (Figure 7C).
Figure 7 Determination of Pin1 levels and 164B8 concentration in treated mice Pin1 drug concentration and Pin1 levels in tumors were measured 6 h after the last dose of 164B8 treatment by LC-MS (A and B) and western blot (C), respectively. Drug concentrations among the three groups were compared using two-way ANOVA in Prism, accounting for interactions (D). Tukey’s multiple comparison test was used to compare multiple groups (∗∗∗p = 0.0003, ∗p = 0.035). Pin1 levels were compared among the three groups after normalizing to β-actin (loading control) using one-way ANOVA and adjusting for multiple comparisons (∗∗∗p < 0.001). TEXT PRINTED IN THE PICTURE: (B) 164B8: 164B8 conc. (ng/mg) Predicted means (LS means) Liver: 0.1017 (30mg/kg); 164B8 conc. (ng/mg) Predicted means (LS means) Adjacent Peritoneum: 0.1133 (30mg/kg); 164B8 conc. (ng/mg) Predicted means (LS means) Tumor: 0.6183 (30mg/kg); 164B8 conc. (ng/mg) Predicted means (LS means) Column means: 0.2778 (30mg/kg); 164B8 conc. (ng/mg) Predicted means (LS means) Liver: 0.7550 (60mg/kg); 164B8 conc. (ng/mg) Predicted means (LS means) Adjacent Peritoneum: 3.648 (60mg/kg); 164B8 conc. (ng/mg) Predicted means (LS means) Tumor: 8.005 (60mg/kg); 164B8 conc. (ng/mg) Predicted means (LS means) Column means: 4.136 (60mg/kg)
Bioluminescent imaging (BLI) was performed one week post-inoculation. Based on imaging intensity, mice were re-grouped to ensure six animals per group. The PIN1 inhibitor was administered via intraperitoneal injection at doses of 30 mg/kg or 60 mg/kg, once daily, 5 days per week for 2 weeks. Tumor engraftment and growth were monitored by in vivo BLI. D-luciferin potassium salt was dissolved in sterile PBS to a final concentration of 16.6 mg/mL and mice were injected intraperitoneally with D-luciferin solution (0.139 g luciferin/kg body weight), then imaged 10–15 min after luciferin injection using an IVIS Spectrum Imaging System (Lago X) with identical exposure times and binning settings for all mice. Bioluminescence signal intensity was quantified as total flux (photons/s) within a region of interest (ROI) using Aura image software. BLI was performed once every week during the treatment. After 2 weeks of treatment, mice were euthanized 6 h after the final dose. Blood samples were collected via cardiac puncture, and normal peritoneum, intestine, and liver tissues were harvested and snap-frozen on dry ice.

human Pin1 = target: T1, human Pin1 (Homo sapiens, UniProt Q13526); assay: DELFIA displacement assay (biotinylated D-peptide / His-tagged Pin1); assay type: binding; settings: DELFIA displacement of biotinylated D-peptide from His-tagged Pin1; compound incubation 6 h; ± standard error of duplicate measurements
T1 construct: Residues 1–163 of human Pin1 were expressed with a thrombin cleavage site and a HisTag at the N-terminus; 6xHis (N); thrombin cleavage site (N); made in house; host or cells: E. coli
T1 sequence (Q13526 whole entry, the tested form may be a part): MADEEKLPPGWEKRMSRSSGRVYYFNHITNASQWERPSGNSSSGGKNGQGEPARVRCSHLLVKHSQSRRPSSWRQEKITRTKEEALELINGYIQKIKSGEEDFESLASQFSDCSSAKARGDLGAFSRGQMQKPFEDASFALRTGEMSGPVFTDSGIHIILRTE
Procedure: To assess the ability of our agents to bind and inhibit Pin1, we developed a robust biochemical assay based on the dissociation-enhanced lanthanide fluorescent immunoassay (DELFIA) platform. In our implementation, we used a biotinylated form of a known Pin1-binding peptide (D-peptide) to monitor the ability of test agents to inhibit the interaction between Pin1 and the D-peptide at various incubation times, as described previously.[32] […] In addition, as mentioned above and reported recently, we tested the ability of the agents to reduce Pin1 thermal stability in vitro by thermal denaturation measurements.[32] […] Pin1 unfolding causes a nonspecific interaction between the water-quenched fluorescent dye and the protein’s exposed hydrophobic residues, resulting in increased fluorescence. A shift in the thermal denaturation temperature between the free and bound protein is interpreted as a stabilization or destabilization event induced by the test ligand. […] To further assess whether these agents could be suitable for in vivo efficacy studies, we also performed stability assays in aqueous buffer and in plasma from various species (Table S2, Figure S2). We tested the stability of our agents in plasma from multiple mouse strains as well as in human plasma (Figure S2), given the peptide nature of the compounds. […]

For `CNC(=O)[C@H](Cc1c[nH]c2ccccc12)NC(=O)[C@@H]1CCCCN1C(=O)[C@H](Cc1c[nH]c2cc(Cl)ccc12)NC(=O)CCl` [164B8] (ClAc-[Trp(6-Cl)]-[Pip]-Trp-NHMe), the “164B8 conc. (ng/mg) Predicted means (LS means) Adjacent Peritoneum” value ([1]; 30mg/kg) was 0.1133 ng/mg, the “164B8 conc. (ng/mg) Predicted means (LS means) Liver” value ([1]; 30mg/kg) was 0.1017 ng/mg and the “164B8 conc. (ng/mg) Predicted means (LS means) Tumor” value ([1]; 30mg/kg) was 0.6183 ng/mg. The “164B8 conc. (ng/mg) Predicted means (LS means) Adjacent Peritoneum” value ([1]; 60mg/kg) was 3.648 ng/mg, the “164B8 conc. (ng/mg) Predicted means (LS means) Liver” value ([1]; 60mg/kg) was 0.7550 ng/mg and the “164B8 conc. (ng/mg) Predicted means (LS means) Tumor” value ([1]; 60mg/kg) was 8.005 ng/mg. The “164B8 conc. (ng/mg) Predicted means (LS means) Column means” value ([1]; 60mg/kg, mean over liver, adjacent peritoneum and tumor (Figure 7B)) was 4.136 ng/mg and the IC50 (human Pin1) was 4.65 ± 0.04 nM.
